Assay results reported in ChEMBL document CHEMBL4825668, “Discovery of Novel Pyrimidine-Based Capsid Assembly Modulators as Potent Anti-HBV Agents” (J Med Chem, 2021).

Experiments:
[1] = Metabolic stability in human liver microsomes assessed as compound remaining at […] incubated for 30 mins by LC/MS/MS analysis; type: ADME, Microsome; settings: read-out: Stabilty
Hepatitis B virus [2] = test: Inhibition of HBV recombinant Cp149 expressed in Escherichia coli BL21 (DE3) assessed as inhibition of capsid assembly at 10 uM incubated for 1 hr by immune blotting analysis relative to control
Hepatitis B virus [3] = test: Antiviral activity against Human hepatitis B virus in Huh-7 cells assessed as reduction in intracellular viral DNA level incubated for 36 hrs by qPCR analysis; type: functional, organism-based; settings: Huh-7, 36 h
[4] = Metabolic stability in rat liver microsomes assessed as compound remaining at […] incubated for 30 mins by LC/MS/MS analysis; type: ADME, Microsome; settings: read-out: Stabilty
[5] = Metabolic stability in mouse liver microsomes assessed as compound remaining at […] incubated for 30 mins by LC/MS/MS analysis; type: ADME, Microsome; settings: read-out: Stabilty
Hepatitis B virus [6] = test: Inhibition of HBV recombinant Cp149 expressed in Escherichia coli BL21 (DE3) assessed as inhibition of capsid assembly at 0.1 uM incubated for 1 hr by immune blotting analysis relative to control
Hepatitis B virus [7] = test: Inhibition of HBV recombinant Cp149 expressed in Escherichia coli BL21 (DE3) assessed as inhibition of capsid assembly at 1 uM incubated for 1 hr by immune blotting analysis relative to control
[8] = Permeability of the compound at pH 7.4 by PAMPA; type: ADME
hERG (KCNH2) = hERG (KCNH2) (Homo sapiens, UniProt Q12809); test: Inhibition of human ERG at 40 uM incubated for 2 to 3 hrs by ligand binding assay
Chain of hERG (KCNH2) (Q12809 whole entry): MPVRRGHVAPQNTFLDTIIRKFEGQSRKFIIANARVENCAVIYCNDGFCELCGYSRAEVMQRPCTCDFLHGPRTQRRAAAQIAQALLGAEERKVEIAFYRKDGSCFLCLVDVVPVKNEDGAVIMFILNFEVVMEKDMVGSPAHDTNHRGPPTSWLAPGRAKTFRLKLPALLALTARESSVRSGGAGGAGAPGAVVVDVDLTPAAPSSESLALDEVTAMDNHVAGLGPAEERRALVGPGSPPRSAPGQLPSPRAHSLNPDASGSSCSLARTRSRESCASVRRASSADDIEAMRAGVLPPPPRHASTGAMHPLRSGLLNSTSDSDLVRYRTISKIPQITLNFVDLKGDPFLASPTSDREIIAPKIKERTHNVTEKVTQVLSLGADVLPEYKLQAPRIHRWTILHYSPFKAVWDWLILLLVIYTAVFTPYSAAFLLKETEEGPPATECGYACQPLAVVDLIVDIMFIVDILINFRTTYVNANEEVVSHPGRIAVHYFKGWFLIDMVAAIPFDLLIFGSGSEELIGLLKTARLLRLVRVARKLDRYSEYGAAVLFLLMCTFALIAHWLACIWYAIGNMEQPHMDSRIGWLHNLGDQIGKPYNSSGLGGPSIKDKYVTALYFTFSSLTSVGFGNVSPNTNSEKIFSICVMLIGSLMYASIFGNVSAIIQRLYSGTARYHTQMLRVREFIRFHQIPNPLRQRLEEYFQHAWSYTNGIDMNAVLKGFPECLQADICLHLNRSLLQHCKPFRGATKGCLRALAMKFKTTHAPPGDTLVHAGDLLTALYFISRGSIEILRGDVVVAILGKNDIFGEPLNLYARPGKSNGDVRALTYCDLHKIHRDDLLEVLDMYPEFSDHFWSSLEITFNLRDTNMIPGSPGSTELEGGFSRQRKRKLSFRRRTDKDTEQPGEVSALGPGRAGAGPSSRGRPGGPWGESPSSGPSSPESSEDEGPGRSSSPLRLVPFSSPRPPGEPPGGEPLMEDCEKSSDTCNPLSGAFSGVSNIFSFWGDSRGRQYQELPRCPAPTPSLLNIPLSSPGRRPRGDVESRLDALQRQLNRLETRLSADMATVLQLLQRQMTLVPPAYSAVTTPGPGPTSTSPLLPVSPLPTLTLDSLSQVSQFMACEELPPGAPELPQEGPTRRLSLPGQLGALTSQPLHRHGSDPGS

[9] = Mutagenicity in Salmonella typhimurium in presence of S9 fraction by Ames test; type: toxicity, subcellular; settings: salmonella enterica subsp. enterica serovar typhimurium
CYP3A4 = CYP3A4 (Homo sapiens, UniProt P08684); test: Inhibition of human recombinant CYP3A4 using ketoconazole […] at 10 uM by fluorometric assay; type: ADME
Chain of CYP3A4 (P08684 whole entry): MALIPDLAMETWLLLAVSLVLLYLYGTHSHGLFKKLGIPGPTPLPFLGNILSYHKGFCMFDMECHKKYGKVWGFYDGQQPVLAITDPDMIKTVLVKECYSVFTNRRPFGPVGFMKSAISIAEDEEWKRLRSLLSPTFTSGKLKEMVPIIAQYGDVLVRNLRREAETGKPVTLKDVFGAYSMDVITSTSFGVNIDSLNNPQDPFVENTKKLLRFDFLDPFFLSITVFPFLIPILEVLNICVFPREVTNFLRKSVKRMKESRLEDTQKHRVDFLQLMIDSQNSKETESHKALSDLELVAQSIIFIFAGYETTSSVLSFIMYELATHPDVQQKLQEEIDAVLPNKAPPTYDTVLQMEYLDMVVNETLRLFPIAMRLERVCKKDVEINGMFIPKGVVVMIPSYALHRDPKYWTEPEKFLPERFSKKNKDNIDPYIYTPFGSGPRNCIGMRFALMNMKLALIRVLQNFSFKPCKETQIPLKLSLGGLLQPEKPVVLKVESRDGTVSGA

CYP1A2 = target: T1, CYP1A2 (Homo sapiens, UniProt P05177); test: Inhibition of human recombinant CYP1A2 using alpha-naphthoflavone […] at 10 uM by fluorometric assay; type: ADME
T1 sequence (P05177 whole entry): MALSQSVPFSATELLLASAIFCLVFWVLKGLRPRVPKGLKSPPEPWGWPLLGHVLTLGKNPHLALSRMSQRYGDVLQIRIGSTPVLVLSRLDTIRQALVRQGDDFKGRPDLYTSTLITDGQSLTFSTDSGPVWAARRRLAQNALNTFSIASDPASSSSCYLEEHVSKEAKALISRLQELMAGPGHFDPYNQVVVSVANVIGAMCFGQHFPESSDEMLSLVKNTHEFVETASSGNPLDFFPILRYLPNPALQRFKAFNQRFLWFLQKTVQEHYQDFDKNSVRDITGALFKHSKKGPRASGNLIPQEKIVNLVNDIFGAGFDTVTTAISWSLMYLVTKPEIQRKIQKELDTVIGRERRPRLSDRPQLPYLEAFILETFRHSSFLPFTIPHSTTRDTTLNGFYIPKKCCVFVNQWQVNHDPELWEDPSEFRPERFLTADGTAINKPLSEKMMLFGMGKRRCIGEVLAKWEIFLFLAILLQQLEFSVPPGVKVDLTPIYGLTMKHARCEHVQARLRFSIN

CYP2C9 = CYP2C9 (Homo sapiens, UniProt P11712); test: Inhibition of human recombinant CYP2C9 using sulfaphenazole […] at 10 uM by fluorometric assay; type: ADME
Chain of CYP2C9 (P11712 whole entry): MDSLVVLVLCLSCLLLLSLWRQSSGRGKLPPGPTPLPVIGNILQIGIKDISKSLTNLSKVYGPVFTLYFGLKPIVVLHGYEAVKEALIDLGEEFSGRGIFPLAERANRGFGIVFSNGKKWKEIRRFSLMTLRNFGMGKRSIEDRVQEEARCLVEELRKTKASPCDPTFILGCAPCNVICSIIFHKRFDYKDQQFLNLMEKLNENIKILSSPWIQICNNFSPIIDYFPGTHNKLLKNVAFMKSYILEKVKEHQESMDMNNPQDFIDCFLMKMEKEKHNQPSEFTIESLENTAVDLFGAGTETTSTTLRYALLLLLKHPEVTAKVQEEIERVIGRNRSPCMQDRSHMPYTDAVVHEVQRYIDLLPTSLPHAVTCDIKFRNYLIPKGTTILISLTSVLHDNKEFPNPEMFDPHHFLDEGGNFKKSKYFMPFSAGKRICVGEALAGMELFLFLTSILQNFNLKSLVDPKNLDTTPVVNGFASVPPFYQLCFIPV

CYP2D6 = CYP2D6 (Homo sapiens, UniProt P10635); test: Inhibition of human recombinant CYP2D6 using quinidine […] at 10 uM by fluorometric assay; type: ADME
Chain of CYP2D6 (P10635 whole entry): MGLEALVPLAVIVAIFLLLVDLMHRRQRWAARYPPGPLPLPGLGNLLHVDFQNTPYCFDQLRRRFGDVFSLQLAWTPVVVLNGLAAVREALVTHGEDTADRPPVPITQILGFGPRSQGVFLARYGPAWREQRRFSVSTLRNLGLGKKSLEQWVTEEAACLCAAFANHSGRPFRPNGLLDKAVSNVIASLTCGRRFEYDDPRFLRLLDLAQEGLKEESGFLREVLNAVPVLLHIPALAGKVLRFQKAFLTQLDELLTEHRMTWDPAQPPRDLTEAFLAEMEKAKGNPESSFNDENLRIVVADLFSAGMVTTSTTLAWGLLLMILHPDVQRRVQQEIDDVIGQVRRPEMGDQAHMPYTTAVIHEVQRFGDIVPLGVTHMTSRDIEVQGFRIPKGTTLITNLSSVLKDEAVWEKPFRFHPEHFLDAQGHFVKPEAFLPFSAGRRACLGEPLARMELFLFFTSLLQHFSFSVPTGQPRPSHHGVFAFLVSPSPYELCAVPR

CYP2C19 = CYP2C19 (Homo sapiens, UniProt P33261); test: Inhibition of human recombinant CYP2C19 using amitriptyline […] at 10 uM by fluorometric assay; type: ADME
Chain of CYP2C19 (P33261 whole entry): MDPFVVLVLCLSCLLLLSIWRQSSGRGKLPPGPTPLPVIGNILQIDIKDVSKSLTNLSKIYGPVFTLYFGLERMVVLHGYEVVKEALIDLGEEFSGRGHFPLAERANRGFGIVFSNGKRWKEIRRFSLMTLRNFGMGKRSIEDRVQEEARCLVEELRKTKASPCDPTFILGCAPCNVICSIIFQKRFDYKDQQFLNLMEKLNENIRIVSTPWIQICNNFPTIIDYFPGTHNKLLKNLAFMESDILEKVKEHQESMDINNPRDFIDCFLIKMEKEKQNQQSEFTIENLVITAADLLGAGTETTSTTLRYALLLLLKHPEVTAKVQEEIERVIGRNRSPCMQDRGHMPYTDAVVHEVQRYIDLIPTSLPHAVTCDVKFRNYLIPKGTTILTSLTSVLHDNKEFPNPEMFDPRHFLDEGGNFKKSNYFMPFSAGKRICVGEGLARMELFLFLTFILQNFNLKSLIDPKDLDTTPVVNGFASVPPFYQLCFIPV

Compound	inhibition (Hepatitis B virus [2]) [%]	IC50 (Hepatitis B virus [3]) [nM]	inhibition (Hepatitis B virus [6]) [%]	inhibition (Hepatitis B virus [7]) [%]	other results
COc1ncccc1C(=O)NCCNc1cc(Nc2ccc(N3CCOCC3)cc2)nc(SC)n1	23	> 10000	–	–	remaining at 0.5 h [1]: 58.8%; remaining at 0.5 h [4]: 49%; remaining at 0.5 h [5]: 17.8%
CSc1nc(NCCNC(=O)c2cccnc2)cc(Nc2ccc(N3CCOCC3)cc2)n1	43	> 10000	–	–	–
CCOC(=O)C1=C(CN2CCOCC2)NC(c2nccs2)=N[C@H]1c1ccc(F)cc1Br	–	188	49	93	–
COc1ncccc1C(=O)NCCNc1cc(Nc2ccccc2)nc([S+](C)[O-])n1 (stereo not given)	–	484	14	83	–
CSc1nc(NCCNC(=O)c2cccnc2F)cc(Nc2ccc(N3CCOCC3)cc2)n1	0	–	–	–	–
CS(=O)(=O)c1nc(Nc2cc(F)c(F)c(F)c2)cc(Nc2cc(F)c(F)c(F)c2)n1	69	1020	–	–	remaining at 0.5 h [1]: 99.9%; remaining at 0.5 h [4]: 99.9%; remaining at 0.5 h [5]: 99.9%
COc1ncccc1C(=O)NCCNc1cc(Nc2ccc(F)cc2Cl)nc([S+](C)[O-])n1 (stereo not given)	43	> 10000	–	–	–
CS(=O)(=O)c1nc(Nc2ccc(F)c(Br)c2)cc(NC2CCC(N)CC2)n1 (stereo not given)	–	480	10	98	–
CSc1nc(NCCNC(=O)c2ccc(Cl)nc2Cl)cc(Nc2ccc(N3CCOCC3)cc2)n1	5	–	–	–	–
CS(=O)(=O)c1nc(Nc2cc(F)c(F)c(F)c2)cc(NC2CCNCC2)n1	–	190	16	90	remaining at 0.5 h [4]: 98.2%; log(permeability) [8]: <= -6; remaining at 0.5 h [5]: 98.6%
CSc1nc(NCCNC(=O)c2ncc(F)cc2F)cc(Nc2ccc(N3CCOCC3)cc2)n1	1	–	–	–	–
C[S+]([O-])c1nc(NCCNC(=O)c2cccnc2)cc(Nc2ccc(N3CCOCC3)cc2)n1 (stereo not given)	13	> 10000	–	–	–
COc1ncccc1C(=O)NCCNc1cc(Nc2ccc(Cl)cc2)nc([S+](C)[O-])n1 (stereo not given)	–	299	27	80	–
COc1ncccc1C(=O)N1CCN(c2cc(Nc3ccc(N4CCOCC4)cc3)nc(SC)n2)CC1	31	> 10000	–	–	–
COc1ncccc1C(=O)NCCNc1cc(Nc2ccc(F)c(F)c2)nc([S+](C)[O-])n1 (stereo not given)	38	> 10000	–	–	–
COc1cncc(C(=O)NCCNc2cc(Nc3ccc(N4CCOCC4)cc3)nc(SC)n2)c1	37	8420	–	–	–
CS(=O)(=O)c1nc(Nc2cc(F)c(F)c(F)c2)cc(NC2CCC(N)CC2)n1 (stereo not given)	–	292	29	96	–
COc1ncccc1C(=O)NCCNc1cc(Nc2ccc(F)cc2)nc([S+](C)[O-])n1 (stereo not given)	–	210	32	83	–

Compound	inhibition (Hepatitis B virus [2]) [%]	IC50 (Hepatitis B virus [3]) [nM]	inhibition (Hepatitis B virus [6]) [%]	inhibition (Hepatitis B virus [7]) [%]	other results
CS(=O)(=O)c1nc(Nc2ccc(F)c(Cl)c2)cc(N2CCNCC2)n1 [listing 1 of 2 here]	–	189	–	–	inhibition at 40 µM (hERG (KCNH2)): 14%; Activity [9]: Non-Toxic; remaining at 0.5 h [1]: > 99%; inhibition at 10 µM (CYP3A4): 60.2%; inhibition at 10 µM (CYP1A2): 57.4%; inhibition at 10 µM (CYP2C9): 64.8%; remaining at 0.5 h [4]: > 99%; log(permeability) [8]: -5.37; inhibition at 10 µM (CYP2D6): 45.2%; remaining at 0.5 h [5]: > 99%; inhibition at 10 µM (CYP2C19): 41.2%
CS(=O)(=O)c1nc(Nc2ccc(F)cc2)cc(Nc2ccc(F)cc2)n1	49	6400	–	–	remaining at 0.5 h [1]: 42.8%; remaining at 0.5 h [4]: 74.4%; remaining at 0.5 h [5]: 37.7%
CSc1nc(NCCNC(=O)c2cccnc2Cl)cc(Nc2ccc(N3CCOCC3)cc2)n1	2	–	–	–	–
CS(=O)(=O)c1nc(Nc2ccc(F)c(Cl)c2)cc(NC2CCNCC2)n1	–	199	59	95	remaining at 0.5 h [1]: 92.9%; remaining at 0.5 h [4]: 85.1%; log(permeability) [8]: -5.46; remaining at 0.5 h [5]: 93.9%
CS(=O)(=O)c1nc(Nc2cc(F)c(F)c(F)c2)cc(N2CCNCC2)n1	–	203	39	92	inhibition at 40 µM (hERG (KCNH2)): 48.7%; Activity [9]: Non-Toxic; remaining at 0.5 h [1]: 99.9%; inhibition at 10 µM (CYP3A4): 52.1%; inhibition at 10 µM (CYP1A2): 23.6%; inhibition at 10 µM (CYP2C9): 85.2%; remaining at 0.5 h [4]: 87.9%; inhibition at 10 µM (CYP2D6): 5.76%; remaining at 0.5 h [5]: 99.8%; inhibition at 10 µM (CYP2C19): 93.4%
COC(=O)C1=C(C)NC(c2ncc(F)cc2F)=N[C@H]1c1ccc(F)cc1Cl	37	205	–	–	–
COc1ncccc1C(=O)NCCNc1cc(Nc2ccc(I)cc2)nc([S+](C)[O-])n1 (stereo not given)	37	> 10000	–	–	–
CS(=O)(=O)c1nc(Nc2ccc(F)c(Br)c2)cc(NC2CCNCC2)n1	–	536	7	97	–
COc1ncccc1C(=O)NCCNc1cc(Nc2ccc(N3CCOCC3)cc2)nc([S+](C)[O-])n1 (stereo not given)	95	402	–	–	remaining at 0.5 h [1]: 93.4%; inhibition at 10 µM (CYP3A4): 51.7%; inhibition at 10 µM (CYP1A2): 18.3%; inhibition at 10 µM (CYP2C9): 42.9%; remaining at 0.5 h [4]: 77.1%; log(permeability) [8]: -5.47; remaining at 0.5 h [5]: 80.2%; inhibition at 10 µM (CYP2C19): 40.7%
CSc1nc(NCCNC(=O)c2cccc(Cl)n2)cc(Nc2ccc(N3CCOCC3)cc2)n1	0	–	–	–	–
CS(=O)(=O)c1nc(Nc2ccc(F)c(Br)c2)cc(N2CCNCC2)n1	–	547	13	98	–
COc1ncccc1C(=O)N1CCN(c2cc(Nc3ccc(N4CCOCC4)cc3)nc([S+](C)[O-])n2)CC1 (stereo not given)	33	> 10000	–	–	–
COc1ncccc1C(=O)NCCNc1cc(Nc2ccc(N3CCOCC3)cc2)nc(S(C)(=O)=O)n1	–	198	49	86	–
O=C1CC2(CCCC2)CC(=O)N1CCCCN1CCN(c2ncccn2)CC1 [BUSPIRONE]	–	–	–	–	remaining at 0.5 h [1]: 2.44%; remaining at 0.5 h [4]: 0.528%; remaining at 0.5 h [5]: 0.906%
CS(=O)(=O)c1nc(Nc2ccc(F)c(Cl)c2)cc(Nc2ccc(F)c(Cl)c2)n1	57	587	–	–	remaining at 0.5 h [1]: 99.9%; remaining at 0.5 h [4]: 99.9%; remaining at 0.5 h [5]: 92.9%
CS(=O)(=O)c1nc(Nc2ccc(F)c(Cl)c2)cc(N2CCNCC2)n1 [listing 2 of 2 here]	–	–	47	90	–
COc1ncccc1C(=O)NCCNc1cc(Nc2ccc(Br)cc2)nc([S+](C)[O-])n1 (stereo not given)	–	177	27	82	–
COc1cncc(C(=O)NCCNc2cc(Nc3ccc(N4CCOCC4)cc3)nc([S+](C)[O-])n2)c1 (stereo not given)	78	> 10000	43	83	–
